Where two headings read alike, the source gives them in different places.
Columns and labels:
[1] = system: human airway epithelia; test: Apical H2O2 production by airway epithelial ALI cultures (fluorometric horseradish peroxidase micro-assay); format: cell-based
Protocol: Reverse transcription-polymerase chain reaction (RT-PCR) was performed with primers designed to detect any mammalian NADPH oxidase capable of producing H2O2 through superoxide intermediate.
Since the predicted molecular structure of Duox1 and 2 identified an intracellular loop containing 2 EF-hand calcium-binding motifs, the Ca^2+ stimulated H2O2 production was assessed. ALI cultures were stimulated for one hour with Thapsigargin (1 μM), an inhibitor of the endoplasmic reticulum calcium ATPase pump that increases intracellular Ca^2+. […] In this assay, the cells were incubated for one hour with either DPI alone or in combination with thapsigargin (1 μM).

[2] = system: P. aeruginosa
Protocol: (§1) Bacteria were collected in the stationary phase of growth and further diluted in LB broth to 5-6×10^4/ml. After adding glycerol to 15%, aliquots of bacteria were stored at −80° C.
(§2) Cultures of non-CF and CF airway epithelial cells were matched with regard to passage number, days in culture, and days at the air liquid interface. At least 24 h prior to the experiments, basolateral media of some cultures were supplemented with 100 μM KSCN. The apical surfaces of the cultures were washed with 0.25 ml PBS and the washes were pooled and stored at −20° C. […] Control experiments were performed using only PBS adjusted to pH 5.7. […] Mixtures were sampled immediately and 4 h after incubation at room temperature and CFU were determined by plating on LB Agar. Antibacterial activity was expressed as a ratio of CFU after 4 h to the starting CFU in the sample to control for slight differences in the starting number of bacteria.

[3] = system: Pseudomonas aeruginosa (ATCC 27853); test: Antibacterial assay of LPO system components in PBS pH 5.7 (control experiments); format: cell-based; conditions: 1.125 μg/ml LPO, 10^−5 M H2O2 or 5×10^−4 M SCN− added singly or in pairs
Protocol: as §1, §2

[4] = system: Pseudomonas aeruginosa (ATCC 27853); test: LPO-dependent antibacterial activity of human airway secretions; format: cell-based
Protocol: Human airway secretions were obtained from intubated patients undergoing ambulatory outpatient elective surgery according to IRB approved protocols. Patients were selected for not having respiratory disease. Saline (3 ml) was injected into the tracheal tube and immediately suctioned into a trap. Recovered secretions were spun at 16,000 rpm for 20 min. at 4° C. The supernatant was aliquoted and stored at −80° C. for later analysis. Undiluted secretions were obtained from acutely (<24 h) intubated patients in the medical ICU who were intubated for reasons other than respiratory disease. Selected patients had no clinical signs of respiratory infection. Secretions were cleared by centrifugation (100,000×g, 30 min), aliquoted, and stored at −80° C.
as §1, §2
It is unlikely that H2O2 would continue to be produced in secretions after collection since its source is thought to be cellular in origin. For this reason, secretions were supplemented with 10^−5 M H2O2.

[5] = system: Burkholderia cepacia; test: LPO dependent killing with bovine milk LPO at pH 5.7, 6.2 and 6.8; format: cell-based; conditions: dapsone 10^−3 M; salicyl hydroxamic acid 10^−4 M
From the text: (§5) Concentrations of the LPO system components were selected to be within the measured ranges in human airways.

[6] = system: P. aeruginosa; test: as above; format: cell-based, Pseudomonas aeruginosa; conditions: dapsone 10^−3 M; salicyl hydroxamic acid 10^−4 M
From the text: as §5

[7] = system: CF airway epithelial cell cultures; test: SCN− efflux in CF airway epithelial air-liquid interface cultures; format: cell-based, human; conditions: for effect on SCN^− efflux: CF cells
Protocol: (§3) J. Respir. […] Experiments comparing non-CF and CF cells were performed with cultures grown simultaneously and matched in passage number, the number of cells plated, and days in culture. […] To initiate experiments, apical surfaces of the cultures were rapidly washed three times with Dulbecco's PBS (50 μl for 6.5 mm filters or 500 μl for 24 mm filters) containing 100 μM amiloride. Following a third wash, additional aliquots were placed on the apical surface for sequential 2 min incubations at 37° C. in humidified 5% CO2.
(§4) Bronchial epithelial cells were obtained from either CF or non-CF lungs at the time of transplant or organ donation. Cells were passaged twice (thereby de-differentiated) and then cultured at an air-liquid interface for re-differentiation. […] J. Respir. […] Following three rapid PBS washes of the apical surface, additional PBS aliquots were placed on the apical surface for sequential 2 min incubations. […] Airway epithelial cell cultures from three separate CF patients were compared to three non-CF control cultures.

[8] = cited from earlier work
[9] = system: non-CF airway epithelial cell cultures; test: SCN− efflux / apical accumulation in non-CF airway epithelial air-liquid interface cultures; format: cell-based, human
Protocol: as §3, §4

[10] = PBS pH 5.7, 4 h room temperature, H2O2 10^−5 M or dapsone 10^−3 M, mean±SE, n=6
[11] = long-term daily aerosol administration

Molecule: c1ccc2c(c1)[I+]c1ccccc1-2 [DPI, Diphenyleneiodonium]
- apical H2O2 production ([1]; 1 μM DPI in combination with thapsigargin (1 μM), one hour): 45±19 H2O2 pmoles/hr

Molecule: N#CS [SCN^−, thiocyanate]
- antibacterial activity in culture washes ([2]; LPO/H2O2 supplemented washes from CF cultures grown with basolateral SCN− (100 μM)): no detectable LPO-dependent effect
- antibacterial activity in culture washes ([2]; LPO/H2O2 supplemented washes from non-CF cultures grown with basolateral SCN− (100 μM)): LPO-dependent killing of bacteria
- antibacterial activity in culture washes ([2]; exogenous SCN− (0.5 mM) added to CF culture washes): generated antibacterial activity
- antibacterial activity in culture washes ([2]; exogenous SCN− (0.5 mM) added to non-CF culture washes): increased the LPO dependent activity
- growth of bacteria [3]: not affected

Molecule: Nc1ccc(S(=O)(=O)c2ccc(N)cc2)cc1 [dapsone]
- cell growth (ratio of CFU after 4 h to starting CFU) [4, 10]: 1.9±0.3
- cell growth (ratio of CFU after 4 h to starting CFU) ([4]; airway secretions with 10^−5 M H2O2 plus dapsone, n=6, p<0.05 vs no dapsone): 1.68±0.31
- effect of peroxidase inhibitor on LPO system antibacterial activity [5]: inhibited
- effect of peroxidase inhibitor on LPO system antibacterial activity [6]: inhibited

Molecule: lactoperoxidase [LPO]
- growth of bacteria [3]: not affected

Molecule: OO [H2O2, hydrogen peroxide]
- antibacterial activity in culture washes ([2]; H2O2 10^−5 M alone or with LPO, washes from cells cultured without basolateral SCN−): did not alone or with LPO, give rise to any antibacterial activity
- cell growth (ratio of CFU after 4 h to starting CFU) [4, 10]: 1.9±0.3
- cell growth (ratio of CFU after 4 h to starting CFU) ([4]; bacteria in airway secretions of six patients in presence of 10^−5 M H2O2, n=6): 0.98±0.16
- growth of bacteria [3]: not affected

Molecule: O=S(=O)(O)c1cc(N=C=S)ccc1C=Cc1ccc(N=C=S)cc1S(=O)(=O)O [DIDS, 4,4′-diisothiocyanostilbene-2,2′disulphonic acid]
- effect on SCN^− efflux [7]: neither glibenclamide nor DIDS had any effect

Molecule: C/C=C(/C)C(=O)O[C@H]1C(C)=C2[C@H]([C@@H]1OC(=O)CCCCCCC)[C@@](C)(OC(C)=O)C[C@H](OC(=O)CCC)[C@@]1(O)[C@H]2OC(=O)[C@@]1(C)O [thapsigargin, Thapsigargin]
- apical H2O2 produced ([1]; ALI cultures stimulated one hour with thapsigargin 1 μM (baseline 59±16)): 128±17 H2O2 pmoles/hr

Molecule: CC(C)Cc1ccc(C(C)C(=O)O)cc1 (stereo not drawn) [ibuprofen]
- rate of lung inflammation ([8]; children with CF, four-year study, high doses): reduced the rate of lung inflammation

Molecule: CCCC(=O)Nc1ncnc2c1ncn2[C@@H]1O[C@@H]2COP(=O)(O)O[C@H]2[C@H]1OC(=O)CCC [dibutryl cAMP]
- SCN^− efflux after stimulation of PKA ([9]; non-CF cultures, dibutryl cAMP (0.5 mM) and forskolin (10 μM) together): increase in efflux
- SCN^− efflux after stimulation of PKA ([7]; CF cultures, dibutryl cAMP (0.5 mM) and forskolin (10 μM) together): did not

Molecule: COc1ccc(Cl)cc1C(=O)NCCc1ccc(S(=O)(=O)NC(=O)NC2CCCCC2)cc1 [glibenclamide]
- reversibility of inhibition of SCN^− efflux ([9]; non-CF cells): reversible
- block of PKA-stimulated and baseline SCN^− efflux ([9]; non-CF cells, glibenclamide 500 μM): blocked
- effect on SCN^− efflux [7]: neither glibenclamide nor DIDS had any effect

B1: Pulmozyme®: mucus-thinning drug, a DNAse (recombinant human deoxyribonuclease) (protein, UniProt P24855 23-282, looked up)
Deoxyribonuclease-1: LKIAAFNIQTFGETKMSNATLVSYIVQILSRYDIALVQEVRDSHLTAVGKLLDNLNQDAPDTYHYVVSEPLGRNSYKERYLFVYRPDQVSAVDSYYYDDGCEPCGNDTFNREPAIVRFFSRFTEVREFAIVPLHAAPGDAVAEIDALYDVYLDVQEKWGLEDVMLMGDFNAGCSYVRPSQWSSIRLWTSPTFQWLIPDSADTTATPTHCAYDRIVVAGMLLRGAVVPDSALPFNFQAAYGLSDQLAQAISDHYPVEVMLK
- lung function ([8]; clinical trials, people with CF): improved lung function
- number of respiratory infections ([8]; clinical trials): reduced the number of respiratory infections
- frequency of severe respiratory tract exacerbations [8, 11]: decrease the frequency of severe respiratory tract exacerbations
- rate of decline in pulmonary function [8, 11]: slow the rate of decline in pulmonary function

Reference: patent publication US7770577B2, “Methods and devices for treating lung dysfunction” (priority 2001, dated 2010)
